Consider one compound from patent US12410229B2, “PTH mimetic peptide based on protein domain reconstruction and application thereof” (priority 2018, dated 2025).

Test [1] has as its system Primary osteoblasts of mouse skulls. Kind of test: Intermittent (4 h/48 h) PTH mimetic peptide stimulation, osteoblast differentiation (ALP, calcium nodules). It counts as cell-based. On the procedure: Osteoblasts were isolated from the skulls of newborn mice and cultured in vitro. The cell at density of 1×10^5/well was inoculated in a 24-well culture plate. After 3 days, a 4 h/48 h intermittent PTH mimetic peptide stimulation experiment was started, which the PTH mimetic peptide was added to the culture system at the corresponding concentration (containing 10% serum+α-MEM Culture medium). After 4 hours, the culture solution was aspirated, the adherent cells were gently washed once with α-MEM medium, then 10% serum+α-MEM medium was added and continued culturing for 44 hours. Repeated this cycle. Concentration: MY-1 peptide 10^−6 M, PTH (1-34) peptide 10^−8 M, MY-3 peptide 10^−8 M.
Alkaline phosphatase staining was performed after 2 weeks, and calcium nodule staining was performed after 4 weeks (FIG. 1A, upper two rows of the holes). Alkaline phosphatase expression and calcium ion concentration of each well were quantitative detected (FIGS. 1B and 1C).
(§1) Primary osteoblasts (two rows of the holes in A) of mouse skulls were intermittently treated with PTH (1-34), MY-3 and MY-1. (within 48 hours, PTH peptide was added to the medium for 4 hours, removed, and cultured in the ordinary medium for 44 hours, then started all over again). At 2 weeks, alkaline phosphatase (ALP) staining (A) and quantification (B) wells were performed in the cell culture. 4 Weekly, calcium nodule staining (A) and calcium ion quantification (C) were performed in culture wells. Bone marrow cells in the femoral shaft bone marrow cavity (lower hole A) received the same treatment with three peptides mentioned above. Two weeks later, tartrate resistant acid phosphatase (TRAP) staining (A) and quantification (D) were performed. […] The same experiment was repeated three times, and same results were obtained. *P<0.05 vs control group (CON), #P<0.05 vs PTH (1-34).

Test [2] concerns Bone marrow cells from the bone marrow cavity of 7-week-old mice. Kind of test: Intermittent (4 h/48 h) PTH mimetic peptide stimulation, osteoclast formation (TRAP). Format: cell-based, mouse. As for the experimental part:
Bone marrow cells from the bone marrow cavity of 7-week-old mice were extracted and cultured in 24-well plates at a density of 1×10^5/well. The 4 h/48 h intermittent PTH mimetic peptide stimulation experiment was carried out as described above. After 7 days, tartrate resistant acid phosphatase (TRAP) staining (bottom row of the holes in FIG. 1A) and quantification were performed (FIG. 1D).
as §1

The subject of test [3] is Primary osteoblasts of mouse skulls. Kind of test: Continuous PTH mimetic peptide stimulation, osteoblast differentiation (ALP, calcium nodules). Format: cell-based. As for the experimental part:
Osteoblasts were isolated from the skulls of newborn mice and cultured in vitro. The cell at density of 1×10^5/well was inoculated in the 24-well culture plate. After 3 days, the continuous PTH mimetic peptide stimulation experiment was started. The PTH mimetic peptide was added to the culture system (containing 10% serum+α-MEM medium) at the corresponding concentration. After 48 hours, when the medium is changed, the PTH mimetic peptide was added again, meaning the PTH mimetic peptide is always in the culture solution. Concentration: MY-1 peptide 10^−6 M, PTH (1-34) peptide 10^−8 M, MY-3 peptide 10^−8 M. Alkaline phosphatase staining was performed 2 weeks later, and calcium nodule staining was performed 4 weeks later (FIG. 2A, upper two rows of the holes). The expression of alkaline phosphatase and the concentration of calcium ion in each well were quantitatively detected (FIGS. 2B and 2C).
(§2) Primary osteoblasts (two rows of the holes in A) of mouse skulls were continuously treated with PTH (1-34), MY-3 and MY-1 (within the 48-hour culture cycles, PTH peptide stayed in the culture medium at all times). After 2 weeks, alkaline phosphatase (ALP) staining (A) and quantification (B) wells were performed in the cell culture. After 4 Weeks, calcium nodule staining (A) and calcium ion quantification (C) were performed in culture wells. Bone marrow cells in the femoral shaft bone marrow cavity (lower hole A) received the same treatment with three peptides as described above. Two weeks later, tartrate resistant acid phosphatase (TRAP) staining (A) and quantification (D) were performed. […] The same experiment was repeated three times and same results were obtained. […], #P<0.05 vs PTH (1-34).

In test [4] the test system is Bone marrow cells from the bone marrow cavity of femur in 7-week-old mice. Description: Continuous PTH mimetic peptide stimulation, osteoclast formation (TRAP). It counts as cell-based, mouse. On the procedure:
Bone marrow cells from the bone marrow cavity of femur in 7-week-old mice were extracted and seeded in 24-well plates at a density of 1×10^5/well. The 48 h continuous PTH mimetic peptide stimulation experiment was carried out as described above. After 7 days, tartrate resistant acid phosphatase (TRAP) staining (bottom row of holes in FIG. 2A) and quantification were performed (FIG. 2D).
as §2

Test [5] concerns Primary mouse skull osteoblasts. Description: Realtime PCR gene expression after PTH peptide stimulation, osteoblasts. The following applies: intermittent stimulation. It counts as cell-based. On the procedure: (§3) Primary mouse skull osteoblasts (FIGS. 3A and 3B) and mouse bone marrow cells (FIGS. 3C and 3D) were cultured in cell culture plates. When the cells completely cover the bottom of the culture well, changed to a medium containing 1% fetal bovine serum, added with different concentrations of PTH mimetic peptide (the concentration is the same as above). Cells receiving intermittent stimulation (FIG. 3A and FIG. 3C) were treated with PTH peptides for 4 hours, and normal medium for 44 hours. Such 48-hour cycle repeated three times.
(§4) Cell RNA was extracted 4 hours after the last PTH peptide stimulation for Realtime PCR detection. Cells receiving continuous stimulation (FIG. 3B and FIG. 3D) were cultured in the medium with PTH peptides, and the culture medium containing peptides was changed 48 hours later. Repeated such cycle three times. After 48 hours of the last PTH peptide stimulation, cellular RNA was extracted for Realtime PCR detection. As shown in the figure, the average value and standard deviation of an independent experiment (triple holes) were obtained. The same experiment was repeated three times and same results were obtained. *P<0.05 vs control group (CON), #P<0.05 vs PTH (1-34).

Another test relates to mouse bone marrow cells. Description: Realtime PCR gene expression after PTH peptide stimulation, bone marrow cells. It counts as cell-based. The following applies: continuous stimulation of bone marrow cells (FIG. 3D). As for the experimental part: as §3, §4
For the next test, the system named is C57BL female mice. Description: Ovariectomy osteoporosis model, tibia histology (paraffin section). Format: in vivo, mouse. The following applies: OVX mice, 2 and 4 weeks, compared with the control group; MY-1 400, PTH (1-34) and MY-3 40 μg/kg/day. As for the experimental part: An osteoporosis model was constructed by removing the ovaries of 7-week-old C57BL female mice. Mice were subcutaneously injected with PTH (3-34) (400 μg/kg/day), MY-1 peptide (400 μg/kg/day), PTH (1-34) (40 μg/kg/day) and MY-3 peptide (40 μg/kg/day) daily (5 days a week), respectively. Mice were sacrificed at 2 and 4 weeks and their tibias were separated, then the cancellous bone mass (BV/TV) and bone mineral density (BMD) of the tibias were measured by micro-CT (FIG. 4).
MY-3 has a stronger anti-bone loss effect than PTH (1-34)-through histological studies. The preparation of the osteoporosis animal model and the administration method of the PTH mimetic peptide was the same as in Example 4. After 2 and 4 weeks, the tibias of experimental mice were removed, decalcified, and prepared for paraffin section. At last, the osteoclast was stained.

The conditions of test [6]: clinical applications, in general; cited from earlier work.

Structures are written as SMILES.

For the compound `CC[C@H](C)[C@H](NC(=O)[C@H](CCC(=O)O)NC(=O)[C@H](CO)NC(=O)[C@@H](NC(=O)[C@@H](N)CO)C(C)C)C(=O)N[C@@H](CCC(N)=O)C(=O)N[C@@H](CC(C)C)C(=O)N[C@@H](CCSC)C(=O)N[C@@H](Cc1cnc[nH]1)C(=O)N[C@@H](CC(N)=O)C(=O)N[C@@H](CC(C)C)C(=O)NCC(=O)N[C@@H](CCCCN)C(=O)N[C@@H](Cc1cnc[nH]1)C(=O)N[C@@H](CC(C)C)C(=O)N[C@@H](CC(N)=O)C(=O)N[C@@H](CO)C(=O)N[C@@H](CCSC)C(=O)N[C@@H](CCC(=O)O)C(=O)N[C@@H](CCCN=C(N)N)C(=O)N[C@H](C(=O)N[C@@H](CCC(=O)O)C(=O)N[C@@H](Cc1c[nH]c2ccccc12)C(=O)N[C@@H](CC(C)C)C(=O)N[C@@H](CCCN=C(N)N)C(=O)N[C@@H](CCCCN)C(=O)N[C@@H](CCCCN)C(=O)N[C@@H](CC(C)C)C(=O)N[C@@H](CCC(N)=O)C(=O)N[C@@H](CC(=O)O)C(=O)N[C@H](C(=O)N[C@@H](Cc1cnc[nH]1)C(=O)N[C@@H](CC(N)=O)C(=O)N[C@@H](Cc1ccccc1)C(=O)O)C(C)C)C(C)C` [PTH (1-34), Teriparatide, reference compound], the ALP in test [1] (intermittent 4 h/48 h stimulation, 2 weeks, MY-1 10^−6 M, PTH (1-34) 10^−8 M, MY-3 10^−8 M, mean ± SD) worked out at 4.91 ± 0.55 U/g protein; in test [3] (2 weeks, MY-1 10^−6 M, PTH (1-34) 10^−8 M, MY-3 10^−8 M, mean ± SD), 1.02 ± 0.28 U/g protein. Further, the Calcium is 0.49 ± .06 mmole/g protein in test [1] (intermittent 4 h/48 h stimulation, 4 weeks, MY-1 10^−6 M, PTH (1-34) 10^−8 M, MY-3 10^−8 M, mean ± SD) and 0.12 ± 0.03 mmole/g protein in test [3] (4 weeks, MY-1 10^−6 M, PTH (1-34) 10^−8 M, MY-3 10^−8 M, mean ± SD). The “osteogenic differentiation of osteoblasts (in words)” value in test [1] (intermittent stimulation) is on record as “can promote osteogenic differentiation of osteoblasts”; in test [3], “inhibit the differentiation of osteoblasts”. The TRAP in test [2] (intermittent 4 h/48 h stimulation, after 7 days, MY-1 10^−6 M, PTH (1-34) 10^−8 M, MY-3 10^−8 M, mean ± SD) is 9.61 ± 1.78 U/g protein; in test [4] (after 7 days, MY-1 10^−6 M, PTH (1-34) 10^−8 M, MY-3 10^−8 M, mean ± SD), 11.80 ± 1.99 U/g protein. Also, the “osteoclast formation (in words)” value is “the same effect of promoting osteoclast formation” in test [2] (intermittent stimulation, TRAP staining) and “the same effect on promoting osteoclast formation” in test [4] (TRAP staining). For the same compound, the “expression of osteogenic marker gene ALP and OC (in words)” value in test [5] was “promote the expression of osteogenic marker gene ALP and OC”. The “RANKL expression (in words)” value in the test with mouse bone marrow cells is recorded as “significantly promoted RANKL expression”. The “expression of ALP and OC (in words)” value in the test on mouse bone marrow cells is “inhibited the expression of ALP and OC”. Further, the “number of trabecular bones (in words)” value with C57BL female mice is given as “increased”. The “reduction of the incidence of vertebral fractures” value in test [6] is reported as “about 76%”.
